Data: patent US9763995B2, “Polymer conjugates of protegrin peptides” (Nektar Therapeutics, priority 2008, dated 2017)

Experiments:
rat red blood cells = assay: Hemolysis assay; assay type: cell-based
Description: Hemolysis assay. Approximately 10 mL of blood was drawn from one adult rat into Na Heparin tube and kept in ice until use. Red blood cells were washed three times with 10 mL of cold DPBS ((−) CaCl2 and (−) MgCl2) and collected by sequential centrifugation at 3,000 g for 5 min at 4° C. Pellets of red blood cells were resuspended with DPBS ((−) CaCl2 and (−) MgCl2) and the total volume was brought up to initial volume of blood drawn. One mL of resuspended red blood cells was resuspended with 49 mL of DPBS ((−) CaCl2 and (−) MgCl2). Incubation mixture was prepared by 400 fold dilution of stock solution of test compounds with final volume of 800 μl. Final concentration of test compounds was equimolar to that of respective unconjugated compounds. Hemolysis incubation was done at 37° C. with mild agitation. For releasable conjugates, test compounds were preincubated in 1×PBS at 37° C. prior to hemolysis assay. Incubation mixture was centrifuged at 3,000 g for 5 min at 4° C., and the absorbance at 550 nm was read from supernatant. […] [table]

[1] = Pharmacokinetic studies of the protegrin conjugates, single IV dose; assay type: in vivo, Sprague-Dawley rats; settings: equivalent protein mass 1.6 mg/kg IV
Description: Twenty one (21) adult male Sprague-Dawley rats with indwelling jugular vein and carotid artery catheters (JVC/CAC) (Charles River Labs, Hollister, Calif.) were utilized for this study. The weight range of the animals was 313-346 grams. All animals were food fasted overnight. Prior to dosing the rats were weighed, the tails and cage cards were labeled for identification and the doses were calculated. Anesthesia was induced and maintained with 3.0-5.0% isoflurane. The JVC and CAC were externalized, flushed with HEP/saline (10 IU/mL HEP/mL saline), plugged, and labeled to identify the jugular vein and carotid artery The predose sample was collected from the JVC. […] Following the last collection point, the animals were euthanized. Bioanalytical analysis: analysis of the plasma samples was conducted using non-validated LC-MS/MS methods. Noncompartmental PK data analysis and report preparation was completed. PK analysis was performed using WinNonlin (Version 5.2, Mountain View, Calif.-94014). Concentrations in plasma that were below LLOQ were replaced with zeros prior to generating Tables and PK analysis. The following PK parameters were estimated using plasma concentration-time profile of each animal: • C0 Extrapolated concentration to time “zero” • Cmax Maximum (peak) concentration • AUCall Area under the concentration-time from zero to time of last concentration value • T1/2(Z) Terminal elimination half-life • AUCinf Area under the concentration-time from zero to time infinity • Tmax Time to reach maximum or peak concentration following administration • CL Total body clearance • Vz Volume of distribution based on terminal phase • Vss Volume of distribution at steady state • MRTlast Mean residence time to last observable concentration

[2] = non-releasable PEG conjugates, Sprague Dawley rats, Mean ± SD
[3] = protegrin-1 in plasma, rats, native or via releasable PEG conjugate

CC(C)C[C@H](NC(=O)[C@H](CCCNC(=N)N)NC(=O)CNC(=O)CNC(=O)[C@@H](N)CCCNC(=N)N)C(=O)N[C@H]1CSSC[C@@H](C(=O)N[C@H](C(=O)NCC(=O)N[C@@H](CCCNC(=N)N)C(N)=O)C(C)C)NC(=O)[C@H](C(C)C)NC(=O)[C@@H]2CSSC[C@H](NC(=O)[C@H](Cc3ccc(O)cc3)NC1=O)C(=O)N[C@@H](CCCNC(=N)N)C(=O)N[C@@H](CCCNC(=N)N)C(=O)N[C@@H](CCCNC(=N)N)C(=O)N[C@@H](Cc1ccccc1)C(=O)N2 [Protegrin-1]
hemolytic effects / hemolytic activity (rat red blood cells; rat red blood cells, 37° C., relative to 100% hemolysis by 0.25% Triton X-100, releasable conjugates preincubated in 1XPBS at 37° C.): comparable to literature data | hemolytic activity retained compared to PG1 preincubated for 0 hr (rat red blood cells; red cells of rat, 96 h): about 60% | Tmax ([1]; male, Sprague-Dawley, rat, in vivo, protegrin-1 in plasma, rats, native or via releasable PEG conjugate): 1.8 min | AUCINF [1, 2]: 1160 ± 351 ng·h/mL | CL [1, 2]: 1470 ± 434^ mL/hr/kg | Cmax [1, 2]: 2050 ± 601 ng/mL | MRTlast [1, 2]: 31.2 ± 3 min | T1/2 [1, 2]: 21 ± 6 min | Vss [1, 2]: 0.848 ± 0.36 L/kg | AUCINF [1, 3]: 1160 ng·h/mL | Cmax [1, 3]: 2050 ng/mL | MRTlast [1, 3]: 31.2 min | T1/2 [1, 3]: 21 min
